Among the data in patent US20170334899A1, “AMINO-SUBSTITUTED ISOTHIAZOLES” (Bayer Pharma Aktiengesellschaft, priority 2014, published 2017) are IC50 values, retold here.

Assay [1] deals with HeLa. The experiment in a line: Proliferation assay (crystal violet), HeLa. It counts as cell-based. To be noted: Homo sapiens, HeLa, 96 h, HeLa cells; 4 days incubation; crystal violet staining; read-out: IC50 inhibition of proliferation, HeLa. In short, it runs like this:
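Absorbance at 595 nm of crystal-violet-stained cells after 4 days' exposure to 0.001–10 μM compound (0.5% DMSO). Values normalized to a day-0 plate (0%) and untreated cells (100%); IC50 by 4-parameter fit.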

The subject of assay [2] is human cervical tumor cell line HeLa (ATCC CCL-2). Description: SAC-Formation - Nocodazole-Induced Assay. It counts as cell-based. The following applies: Homo sapiens, HeLa, 24 h, HeLa cells, nocodazole 0.1 μg/ml together with test compound, decrease of mitotic cells (phospho-histone H3 Ser10). In short, it runs like this:
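Loss of phospho-histone H3 Ser10-positive cells, counted against Hoechst-stained nuclei by high-content imaging, marked mitotic breakthrough. Compounds (0.005–20 μM, 0.5% DMSO) were co-dosed with 0.1 μg/ml nocodazole onto HeLa cells for 24 h at 37 °C. Curves were fitted with a four-parameter Hill equation.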

The structures appear in SMILES notation.

In the case of `Cc1nsc(Nc2cnc(C(F)(F)F)cn2)c1C(=O)Nc1ccc(F)c(OC[C@@H]2CCN(CCC(F)(F)F)C2)c1` [Example 340, N-(4-fluoro-3-{[(3R)-1-(3,3,3-trifluoropropyl)pyrrolidin-3-yl]methoxy}phenyl)-3-methyl-5-{[5-(trifluoromethyl)pyrazin-2-yl]amino}-1,2-thiazole-4-carboxamide], the IC50 was 430 nM in assay [1] and 33 nM in assay [2].

For the molecule `Cc1nsc(Nc2cnc(C(F)(F)F)cn2)c1C(=O)Nc1ccc(OCC2CCN(CC(F)F)CC2)nc1` [Example 345, N-(6-{[1-(2,2-difluoroethyl)piperidin-4-yl]methoxy}pyridin-3-yl)-3-methyl-5-{[5-(trifluoromethyl)pyrazin-2-yl]amino}-1,2-thiazole-4-carboxamide], the figures for the IC50 in assay [1] and in assay [2] were 270 nM and 28 nM, respectively.

Regarding `Cc1nsc(Nc2cnc(C(F)(F)F)cn2)c1C(=O)Nc1ccc(OCCCN(C)CCF)nc1` [Example 352, N-(6-{3-[(2-fluoroethyl)(methyl)amino]propoxy}pyridin-3-yl)-3-methyl-5-{[5-(trifluoromethyl)pyrazin-2-yl]amino}-1,2-thiazole-4-carboxamide], the results for the IC50 in assay [1] and in assay [2] were 1100 nM and 470 nM, respectively.

Take `Cc1nsc(Nc2cnc(C(F)(F)F)cn2)c1C(=O)Nc1ccc(OCC2CCCN(CC(F)(F)F)C2)nc1` (stereo not shown) [Example 326, 3-methyl-N-(6-{[1-(2,2,2-trifluoroethyl)piperidin-3-yl]methoxy}pyridin-3-yl)-5-{[5-(trifluoromethyl)pyrazin-2-yl]amino}-1,2-thiazole-4-carboxamide]: the IC50 came out at 300 nM in assay [1] and 5.6 nM in assay [2].

For the molecule `Cc1nsc(Nc2cnc(C(F)(F)F)cn2)c1C(=O)Nc1ccc(O[C@@H]2CCN(CCC(F)(F)F)C2)nc1` [Example 381, 3-methyl-5-{[5-(trifluoromethyl)pyrazin-2-yl]amino}-N-(6-{[(3R)-1-(3,3,3-trifluoropropyl)pyrrolidin-3-yl]oxy}pyridin-3-yl)-1,2-thiazole-4-carboxamide], the IC50 was 410 nM in assay [1] and 47 nM in assay [2].

With `Cc1nsc(Nc2cnc(C(F)(F)F)cn2)c1C(=O)Nc1ccc(OCCCN(C)CC(F)(F)F)nc1` [Example 354, 3-methyl-N-(6-{3-[methyl(2,2,2-trifluoroethyl)amino]propoxy}pyridin-3-yl)-5-{[5-(trifluoromethyl)pyrazin-2-yl]amino}-1,2-thiazole-4-carboxamide], the IC50 in assay [1] was 330 nM; in assay [2], 110 nM.

Consider `CCN1CC[C@@H](Oc2ccc(NC(=O)c3c(C)nsc3Nc3cnc(C(F)(F)F)cn3)cn2)[C@H](F)C1` [Example 369, N-(6-{[(3R,4R)-1-ethyl-3-fluoropiperidin-4-yl]oxy}pyridin-3-yl)-3-methyl-5-{[5-(trifluoromethyl)pyrazin-2-yl]amino}-1,2-thiazole-4-carboxamide], for which the IC50 in assay [1] came out at 390 nM; in assay [2] it was 58 nM.

Turning to `Cc1nsc(Nc2cnc(C(F)(F)F)cn2)c1C(=O)Nc1ccc(O[C@H]2CCN(CC(F)(F)F)C2)nc1` [Example 383, 3-methyl-N-(6-{[(3S)-1-(2,2,2-trifluoroethyl)pyrrolidin-3-yl]oxy}pyridin-3-yl)-5-{[5-(trifluoromethyl)pyrazin-2-yl]amino}-1,2-thiazole-4-carboxamide], the values for the IC50 in assay [1] and in assay [2] were 280 nM and 27 nM, respectively.

Turning to `Cc1nsc(Nc2cnc(C(F)(F)F)cn2)c1C(=O)Nc1ccc(N2CCN(CC(F)F)CC2)cn1` [Example 372, N-{5-[4-(2,2-difluoroethyl)piperazin-1-yl]pyridin-2-yl}-3-methyl-5-{[5-(trifluoromethyl)pyrazin-2-yl]amino}-1,2-thiazole-4-carboxamide], the IC50 in assay [1] was found to be 1500 nM; in assay [2], 120 nM.

As to `Cc1nsc(Nc2cnc(C(F)(F)F)cn2)c1C(=O)Nc1ccc(F)c(OCC2CCCN(CC(F)(F)F)C2)c1` (stereo not shown) [Example 337, N-(4-fluoro-3-{[1-(2,2,2-trifluoroethyl)piperidin-3-yl]methoxy}phenyl)-3-methyl-5-{[5-(trifluoromethyl)pyrazin-2-yl]amino}-1,2-thiazole-4-carboxamide], the IC50 in assay [1] is 370 nM; in assay [2] it was 61 nM.

In the case of `Cc1nsc(Nc2cnc(C(F)(F)F)cn2)c1C(=O)Nc1ccc(N2CCN(CC(F)F)CC2)nc1` [Example 359, N-{6-[4-(2,2-difluoroethyl)piperazin-1-yl]pyridin-3-yl}-3-methyl-5-{[5-(trifluoromethyl)pyrazin-2-yl]amino}-1,2-thiazole-4-carboxamide], the IC50 in assay [1] stood at 640 nM; in assay [2] it was 29 nM.

Take `Cc1nsc(Nc2cnc(C(F)(F)F)cn2)c1C(=O)Nc1ccc(O[C@H]2CCCN(CC(F)(F)F)C2)nc1` [Example 389, 3-methyl-N-(6-{[(3S)-1-(2,2,2-trifluoroethyl)piperidin-3-yl]oxy}pyridin-3-yl)-5-{[5-(trifluoromethyl)pyrazin-2-yl]amino}-1,2-thiazole-4-carboxamide]: the IC50 in assay [1] amounted to 310 nM; in assay [2], 93 nM.

In the case of `Cc1nsc(Nc2cnc(C(F)(F)F)cn2)c1C(=O)Nc1ccc(OCC2CCCN(CCF)C2)nc1` (stereo not shown) [Example 325, N-(6-{[1-(2-fluoroethyl)piperidin-3-yl]methoxy}pyridin-3-yl)-3-methyl-5-{[5-(trifluoromethyl)pyrazin-2-yl]amino}-1,2-thiazole-4-carboxamide], the IC50 came to 620 nM in assay [1] and 110 nM in assay [2].

In the case of `Cc1nsc(Nc2cnc(C(F)(F)F)cn2)c1C(=O)Nc1ccc(OCC2CCN(CCF)CC2)nc1` [Example 344, N-(6-{[1-(2-fluoroethyl)piperidin-4-yl]methoxy}pyridin-3-yl)-3-methyl-5-{[5-(trifluoromethyl)pyrazin-2-yl]amino}-1,2-thiazole-4-carboxamide], the IC50 in assay [1] is 990 nM; in assay [2], 290 nM.

For the molecule `Cc1nsc(Nc2cnc(C(F)(F)F)cn2)c1C(=O)Nc1ccc(O[C@@H]2CCN(CC(F)(F)F)C2)nc1` [Example 380, 3-methyl-N-(6-{[(3R)-1-(2,2,2-trifluoroethyl)pyrrolidin-3-yl]oxy}pyridin-3-yl)-5-{[5-(trifluoromethyl)pyrazin-2-yl]amino}-1,2-thiazole-4-carboxamide], the IC50 was 550 nM in assay [1] and 340 nM in assay [2].

For `Cc1nsc(Nc2cnc(C(F)(F)F)cn2)c1C(=O)Nc1ccc(F)c(OC[C@@H]2CCCN(CC(F)F)C2)c1` [Example 341, N-(3-{[(3R)-1-(2,2-difluoroethyl)piperidin-3-yl]methoxy}-4-fluorophenyl)-3-methyl-5-{[5-(trifluoromethyl)pyrazin-2-yl]amino}-1,2-thiazole-4-carboxamide], the IC50 in assay [1] was determined as 440 nM; in assay [2] it was 27 nM.

Turning to `Cc1nsc(Nc2cnc(C(F)(F)F)cn2)c1C(=O)Nc1ccc(OCCCN(C)CCC(F)(F)F)nc1` [Example 355, 3-methyl-N-(6-{3-[methyl(3,3,3-trifluoropropyl)amino]propoxy}pyridin-3-yl)-5-{[5-(trifluoromethyl)pyrazin-2-yl]amino}-1,2-thiazole-4-carboxamide], the IC50 is 330 nM in assay [1] and 150 nM in assay [2].

As to `Cc1nsc(Nc2cnc(C(F)(F)F)cn2)c1C(=O)Nc1ccc(OCC2CCCN(CCC(F)(F)F)C2)nc1` (stereo not shown) [Example 328, 3-methyl-5-{[5-(trifluoromethyl)pyrazin-2-yl]amino}-N-(6-{[1-(3,3,3-trifluoropropyl)piperidin-3-yl]methoxy}pyridin-3-yl)-1,2-thiazole-4-carboxamide], the IC50 is 360 nM in assay [1] and 1.8 nM in assay [2].

`Cc1nsc(Nc2ccc(C#N)cn2)c1C(=O)Nc1ccc(OC2CCN(CC(F)(F)F)CC2)nc1` [Example 30, 5-[(5-Cyanopyridin-2-yl)amino]-3-methyl-N-(6-{[1-(2,2,2-trifluoroethyl)piperidin-4-yl]oxy}pyridin-3-yl)-1,2-thiazole-4-carboxamide]: the IC50 in assay [1] was found to be 340 nM; in assay [2], 620 nM.

As for `Cc1nsc(Nc2cnc(C(F)(F)F)cn2)c1C(=O)Nc1ccc(OCC2CCN(CCC(F)(F)F)CC2)nc1` [Example 347, 3-methyl-5-{[5-(trifluoromethyl)pyrazin-2-yl]amino}-N-(6-{[1-(3,3,3-trifluoropropyl)piperidin-4-yl]methoxy}pyridin-3-yl)-1,2-thiazole-4-carboxamide], the IC50 in assay [1] amounted to 390 nM; in assay [2] it was 40 nM.

As for `Cc1nsc(Nc2cnc(C(F)(F)F)cn2)c1C(=O)Nc1ccc(O[C@H]2CCN(CC(F)F)C2)nc1` [Example 382, N-(6-{[(3S)-1-(2,2-difluoroethyl)pyrrolidin-3-yl]oxy}pyridin-3-yl)-3-methyl-5-{[5-(trifluoromethyl)pyrazin-2-yl]amino}-1,2-thiazole-4-carboxamide], the IC50 is 180 nM in assay [1] and 24 nM in assay [2].

Consider `Cc1nsc(Nc2cnc(C(F)(F)F)cn2)c1C(=O)Nc1ccc(O[C@H]2CCCN(CCC(F)(F)F)C2)nc1` [Example 390, 3-methyl-5-{[5-(trifluoromethyl)pyrazin-2-yl]amino}-N-(6-{[(3S)-1-(3,3,3-trifluoropropyl)piperidin-3-yl]oxy}pyridin-3-yl)-1,2-thiazole-4-carboxamide], for which the values for the IC50 in assay [1] and in assay [2] were 320 nM and 110 nM, respectively.

As to `Cc1nsc(Nc2cnc(C(F)(F)F)cn2)c1C(=O)Nc1ccc(F)c(OC[C@@H]2CCN(CC(F)(F)F)C2)c1` [Example 339, N-(4-fluoro-3-{[(3R)-1-(2,2,2-trifluoroethyl)pyrrolidin-3-yl]methoxy}phenyl)-3-methyl-5-{[5-(trifluoromethyl)pyrazin-2-yl]amino}-1,2-thiazole-4-carboxamide], the IC50 was found to be 380 nM in assay [1] and 40 nM in assay [2].
